Data set [1] concerns IOP of rabbits receiving subTenon's dexamethasone acetate. The data set can be described thus: Rabbit dexamethasone acetate-induced IOP elevation, topical ocular dosing. Type of data set: in vivo. Conditions: for IOP change versus vehicle treated group: weekly subTenon's dexamethasone acetate 1 mg/kg. As for the experimental part:
Three groups of rabbits received weekly subTenon's injections of dexamethasone acetate (1 mg/kg) for 4 weeks. After two weeks, the […] of all three groups measured approximately 5 mm Hg. The rabbits were then treated with vehicle, 0.1% anecortave acetate, a 1% anecortave acetate by topical ocular dosing three times a day for the remaining 2 weeks. The IOP continued to increase in the vehicle treated group.

The subject of data set [2] is glucocorticoid induced ocular hypertension. The data set can be described thus: Topical anecortave acetate eye drops in patients with glucocorticoid induced ocular hypertension. It is filed as in vivo, human (patients). Conditions: 1% eye drops topically three times per day for up to 12 weeks, glucocorticoid continued, reduced from 29 mm Hg. As for the experimental part:
Patients ([…]) with documented glucocorticoid induced ocular hypertension were treated topically with 1% anecortave acetate eye drops three times per day for up to 12 weeks. The patients continued to receive their glucocorticoid medication.

Consider 2 molecules from patent US20090181933A1, “USE OF STEROIDS TO TREAT PERSONS SUFFERING FROM OCULAR DISORDERS” (priority 2008, published 2009).

As for `CC(=O)OCC(=O)[C@@]1(O)CC[C@H]2[C@@H]3CCC4=CC(=O)CC[C@]4(C)C3=CC[C@@]21C` [anecortave acetate, 4,9(11)-pregnadien-17α,21-diol-3,20dione-21-acetate], the “IOP change versus vehicle treated group” value in data set [1] (0.1% topical ocular three times a day for 2 weeks) and in data set [1] (1% topical ocular three times a day for 2 weeks) was “significantly lowered” in each case. In addition, the “IOP after anecortave acetate treatment” value in data set [2] is reported as 19-22 mm Hg.

As for `CC(=O)OCC(=O)[C@@]1(O)[C@H](C)C[C@H]2[C@@H]3CCC4=CC(=O)C=C[C@]4(C)[C@@]3(F)[C@@H](O)C[C@@]21C` [dexamethasone acetate], in data set [1] (weekly subTenon's injections 1 mg/kg, after two weeks, all three groups), the “IOPs (printed TOPs) after two weeks of dexamethasone acetate” value was “approximately 5 mm Hg”.
